Test results taken from patent US4036834A, “Derivatives of 7-(α-hydroxy-substituted pyridyl carboxamido-α p h Δ^3 -cephem-4-carboxylic acid” (Yamanouchi Pharmaceutical Co., Ltd., priority 1974, dated 1977).
Values after ≈ are worked out from the molar mass of the structure shown. Read-outs that look alike come from different tables or passages of the source.

Columns and labels:
Type in all cases: cell-based
[1] = system: Shigella sonnei II 37148; assay: MIC against Shigella sonnei II 37148; conditions: II37148
Description: (§1) Now, for illustrating the excellent pharmacological effects of the compounds of this invention, the values of MIC (γ/ml) of the compounds against various bacteria are shown in the following table, the compounds of this invention are shown by example numbers.

[2] = system: salmonella typhi H901W; assay: microbe, parasite or virus in culture; conditions: Salmonella enterica
[3] = system: Pseudomonas ovalis IAM 1002; assay: MIC against Pseudomonas ovalis IAM 1002; conditions: Pseudomonas putida, IAM1002
Description: as §1
6: Pseudomonas ovalis IAM 1002

[4] = system: pseudomonas aeruginosa 99 (Gentamycin resistant); assay: MIC against pseudomonas aeruginosa 99 (Gentamycin resistant)
Description: as §1
5: pseudomonas aeruginosa 99 (Gentamycin resistant)

[5] = system: pseudomonas aeruginosa ATCC 8689; assay: MIC against pseudomonas aeruginosa ATCC 8689; conditions: ATCC8689; pseudomonas aeruginosa ATCC 8689; read-out: MIC
Description: as §1
4: pseudomonas aeruginosa ATCC 8689

[6] = system: Klebsiella pneumoniae ATCC 10031; assay: MIC against Klebsiella pneumoniae ATCC 10031; conditions: ATCC10031
Description: as §1
8: Klebsiella pneumoniae ATCC 10031

[7] = system: staphylococcus aureus 209P; assay: MIC against staphylococcus aureus 209P
Description: as §1
16: staphylococcus aureus 209P

[8] = system: salmonella enteritidis; assay: MIC against salmonella enteritidis; conditions: Salmonella enterica; salmonella enteritidis; read-out: MIC
Description: as §1
10: salmonella enteritidis

[9] = system: Shigella flexnori 2a 1675; assay: MIC against Shigella flexnori 2a 1675; conditions: 2A1675
Description: as §1

[10] = system: Bacillus subtilis ATCC 6633; assay: MIC against Bacillus subtilis ATCC 6633; conditions: ATCC6633; Bacillus subtilis ATCC 6633; read-out: MIC
Description: as §1
14: Bacillus subtilis ATCC 6633

[11] = system: bacillus megatherium 10778; assay: MIC against bacillus megatherium 10778; conditions: bacillus megatherium 10778; read-out: MIC
Description: as §1

[12] = system: micrococcus flavus ATCC 10240; assay: MIC against micrococcus flavus ATCC 10240; conditions: ATCC10240; micrococcus flavus ATCC 10240; read-out: MIC
Description: as §1

[13] = system: proteus vulgaris OX 19US; assay: MIC against proteus vulgaris OX 19US; conditions: OX19US
Description: as §1
2. proteus vulgaris OX 19US

[14] = system: Proteus vulgaris OXK US; assay: MIC against Proteus vulgaris OXK US; conditions: Proteus vulgaris OXK US; read-out: MIC
Description: as §1
1: Proteus vulgaris OXK US

[15] = system: proteus mirabilis IFM OM-19; assay: MIC against proteus mirabilis IFM OM-19; conditions: IFMOM19
Description: as §1
3. proteus mirabilis IFM OM-19

[16] = system: escherichia coli Kauffman 0-1; assay: MIC against escherichia coli Kauffman 0-1; conditions: escherichia coli Kauffman 0-1; read-out: MIC
Description: as §1
7: escherichia coli Kauffman 0-1

[17] = system: Staphylococcus Onuma; assay: MIC against Staphylococcus Onuma
Description: as §1

[18] = system: staphylococcus Shimanishi; assay: MIC against staphylococcus Shimanishi; conditions: staphylococcus Shimanishi; read-out: MIC
Description: as §1
17. staphylococcus Shimanishi

[19] = Pseudomonas ovalis IAM 1002, read-out: MIC
[20] = pseudomonas aeruginosa 99 (Gentamycin resistant), read-out: MIC
[21] = proteus vulgaris OX 19US, read-out: MIC
[22] = Staphylococcus Onuma, read-out: MIC
[23] = Klebsiella pneumoniae ATCC 10031, read-out: MIC

| SMILES | MIC [1] [µg/mL] | MIC [2] [µg/mL] | MIC [3, 19] [µg/mL] | MIC [4, 20] [µg/mL] | MIC [5] [µg/mL] | MIC ([6]; Klebsiella pneumoniae) [µg/mL] | MIC ([7]; read-out: MIC) [µg/mL] | MIC [8] [µg/mL] | MIC [9] [µg/mL] | MIC [10] [µg/mL] | MIC [11] [µg/mL] | MIC [12] [µg/mL] | MIC [13, 21] [µg/mL] | MIC [14] [µg/mL] | MIC [15] [µg/mL] | MIC [16] [µg/mL] | MIC [17, 22] [µg/mL] | MIC [18] [µg/mL] | MIC [3] [µg/mL] | MIC [6, 23] [µg/mL] | further results |
| --- | --- | --- | --- | --- | --- | --- | --- | --- | --- | --- | --- | --- | --- | --- | --- | --- | --- | --- | --- | --- | --- |
| CC(=O)Nc1nc(S)nc(SCC2=C(C(=O)O)N3C(=O)[C@@H](NC(=O)[C@H](NC(=O)c4cnccc4O)c4ccccc4)[C@H]3SC2)n1 [Example 4, 7-[D-α-(4-hydroxynicotinoylamido)-α-phenylacetamido]-3-(4-mercapto-6-acetylamino-1,3,5-triazin-2-yl)thiomethyl-Δ^3-cephem-4-carboxylic acid] | 12.5 (≈ 18.7 µM) | 0.39 (≈ 0.583 µM) | 50 (≈ 74.8 µM) | 50 (≈ 74.8 µM) | 50 (≈ 74.8 µM) | 12.5 (≈ 18.7 µM) | 1.56 (≈ 2.33 µM) | 0.78 (≈ 1.17 µM) | 12.5 (≈ 18.7 µM) | 0.78 (≈ 1.17 µM) | 0.39 (≈ 0.583 µM) | 6.25 (≈ 9.35 µM) | 6.25 (≈ 9.35 µM) | 0.19 (≈ 0.284 µM) | 0.39 (≈ 0.583 µM) | 6.25 (≈ 9.35 µM) | 6.25 (≈ 9.35 µM) | 6.25 (≈ 9.35 µM) | – | – | – |
| O=C(O)C1=C(CSc2cc(S)ncn2)CS[C@@H]2[C@H](NC(=O)[C@H](NC(=O)c3cnccc3O)c3ccccc3)C(=O)N12 [Example 5, 7-[D-α-(4-hydroxynicotinoylamido)-α-phenylacetamido]-3-(4-mercaptopyrimidin-6-yl)thiomethyl-Δ^3-cephem-4-carboxylic acid] | 6.25 (≈ 10.2 µM) | < 0.09 | – | 25 (≈ 40.9 µM) | 25 (≈ 40.9 µM) | – | 0.78 (≈ 1.28 µM) | 0.39 (≈ 0.639 µM) | 6.25 (≈ 10.2 µM) | 0.39 (≈ 0.639 µM) | 0.19 (≈ 0.311 µM) | 3.13 (≈ 5.13 µM) | 0.78 (≈ 1.28 µM) | < 0.09 | 0.19 (≈ 0.311 µM) | 3.13 (≈ 5.13 µM) | – | 3.13 (≈ 5.13 µM) | 6.25 (≈ 10.2 µM) | 3.13 (≈ 5.13 µM) | MIC ([17]; Staphylococcus): 6.25 µg/mL (≈ 10.2 µM) |
| Nc1nc(S)cc(SCC2=C(C(=O)O)N3C(=O)[C@@H](NC(=O)[C@H](NC(=O)c4cnccc4O)c4ccccc4)[C@H]3SC2)n1 [Example 6] | 12.5 (≈ 20 µM) | 0.19 (≈ 0.304 µM) | – | 50 (≈ 79.9 µM) | 100 (≈ 160 µM) | – | 0.78 (≈ 1.25 µM) | 0.39 (≈ 0.623 µM) | 12.5 (≈ 20 µM) | 0.78 (≈ 1.25 µM) | 0.78 (≈ 1.25 µM) | 3.13 (≈ 5 µM) | – | 0.19 (≈ 0.304 µM) | 1.56 (≈ 2.49 µM) | 6.25 (≈ 9.99 µM) | 6.25 (≈ 9.99 µM) | 3.13 (≈ 5 µM) | 12.5 (≈ 20 µM) | 6.25 (≈ 9.99 µM) | MIC ([13]; Proteus vulgaris): 12.5 µg/mL (≈ 20 µM) |
| CSc1nc(S)cc(SCC2=C(C(=O)O)N3C(=O)[C@@H](NC(=O)[C@H](NC(=O)c4cnccc4O)c4ccccc4)[C@H]3SC2)n1 [Example 7, 7-[D-α-(4-hydroxynicotinoylamido)-α-phenylacetamido]-3-(4-mercapto-2-methylthiopyrimidin-6-yl)thiomethyl-Δ^3-cephem-4-carboxylic acid] | 25 (≈ 38.1 µM) | 0.78 (≈ 1.19 µM) | – | – | 25 (≈ 38.1 µM) | 12.5 (≈ 19 µM) | – | 0.39 (≈ 0.594 µM) | 12.5 (≈ 19 µM) | 0.19 (≈ 0.289 µM) | 0.39 (≈ 0.594 µM) | 0.78 (≈ 1.19 µM) | 0.39 (≈ 0.594 µM) | 0.78 (≈ 1.19 µM) | 0.78 (≈ 1.19 µM) | 25 (≈ 38.1 µM) | 3.13 (≈ 4.77 µM) | 0.78 (≈ 1.19 µM) | 12.5 (≈ 19 µM) | – | MIC ([4]; Pseudomonas aeruginosa): 12.5 µg/mL (≈ 19 µM); MIC [7]: 0.19 µg/mL (≈ 0.289 µM) |
| Cn1nnnc1SCC1=C(C(=O)O)N2C(=O)C(NC(=O)C(NC(=O)c3cccnc3)c3ccccc3)C2SC1 (stereo not drawn) [Example C-1, 7-(α-nicotinoylamido-α-phenylacetamido)-3-(1-methyl-1H-tetrazle-5-ylthiomethyl)-Δ^3-cephem-4-carboxylic acid, reference compound] | 100 (≈ 176 µM) | > 100 | > 100 | > 100 | > 100 | – | – | – | 50 (≈ 88.2 µM) | 3.13 (≈ 5.52 µM) | 3.13 (≈ 5.52 µM) | 1.56 (≈ 2.75 µM) | – | 3.13 (≈ 5.52 µM) | 12.5 (≈ 22.1 µM) | 50 (≈ 88.2 µM) | – | – | – | 12.5 (≈ 22.1 µM) | – |
| Cc1nnc(SCC2=C(C(=O)O)N3C(=O)C(NC(=O)C(NC(=O)c4cccnc4)c4ccccc4)C3SC2)s1 (centres unmarked) [Example C-2, reference compound] | 100 (≈ 172 µM) | > 100 | > 100 | > 100 | > 100 | – | – | – | 50 (≈ 85.8 µM) | 1.56 (≈ 2.68 µM) | 3.13 (≈ 5.37 µM) | 1.56 (≈ 2.68 µM) | – | 6.25 (≈ 10.7 µM) | 25 (≈ 42.9 µM) | 100 (≈ 172 µM) | – | – | – | 12.5 (≈ 21.5 µM) | – |
